The values below come from patent US11987586B1 (TAKEDA PHARMACEUTICAL COMPANY LIMITED, priority 2022, dated 2024).

This test deals with T1, human OX2 receptor (Homo sapiens, UniProt O43614).
T1 construct: expressed in transfected cells
T1 sequence (O43614 1-444): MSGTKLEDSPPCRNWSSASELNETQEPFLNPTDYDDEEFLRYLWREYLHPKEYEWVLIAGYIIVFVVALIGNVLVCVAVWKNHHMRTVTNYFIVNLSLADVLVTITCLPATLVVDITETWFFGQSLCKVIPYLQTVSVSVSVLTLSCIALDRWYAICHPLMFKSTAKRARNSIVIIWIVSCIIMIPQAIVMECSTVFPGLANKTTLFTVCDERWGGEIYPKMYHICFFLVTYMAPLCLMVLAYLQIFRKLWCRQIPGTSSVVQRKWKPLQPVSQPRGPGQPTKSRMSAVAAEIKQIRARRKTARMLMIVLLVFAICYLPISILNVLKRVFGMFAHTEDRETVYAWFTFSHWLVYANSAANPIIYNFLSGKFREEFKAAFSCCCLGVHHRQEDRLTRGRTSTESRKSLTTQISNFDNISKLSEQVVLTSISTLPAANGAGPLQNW
Put plainly: Measurement of orexin type 2 receptor agonist activity (calcium fluorescence, Fluo-4, FDSS). It is filed as cell-based. The following applies: 3 uM test compound; CHO cells expressing human OX2 receptor; DMSO = 0%, 10 nM orexin A (human) = 100%. The gist of the method:
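CHO-K1 cells stably expressing human OX2 receptor (residues 1-444) were loaded with Fluo-4 AM plus probenecid. Calcium fluorescence after compound addition was recorded for 1 min 40 s. Activity (%) was scaled between DMSO (0%) and 10 nM orexin A final (100%).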
As for `CS(=O)(=O)N[C@@H]1Cn2c(cn(-c3noc4cccc(-c5c(F)cccc5F)c34)c2=O)C1(F)F` [Example 102, N-{(6R)-2-[4-(2,6-Difluorophenyl)-1,2-benzoxazol-3-yl]-7,7-difluoro-3-oxo-2,5,6,7-tetrahydro-3H-pyrrolo[1,2-c]imidazol-6-yl}methanesulfonamide], the “OX2R agonist activity (3 uM, %)” value worked out at 100%.
Next, `Cc1cc(-c2c(F)cccc2F)c2c(-n3cc4n(c3=O)C[C@@H](NS(C)(=O)=O)C4(F)F)noc2c1` [Example 180, N-{(6R)-2-[4-(2,6-difluorophenyl)-6-methyl-1,2-benzoxazol-3-yl]-7,7-difluoro-3-oxo-2,5,6,7-tetrahydro-3H-pyrrolo[1,2-c]imidazol-6-yl}methanesulfonamide]: 100%; `CCS(=O)(=O)N[C@@H]1CN2C(=O)N(c3noc4cccc(-c5ccco5)c34)CC[C@@H]2C1(F)F` [Example 324, N-{(4aR,6R)-5,5-difluoro-2-[4-(furan-2-yl)-1,2-benzoxazol-3-yl]-1-oxooctahydropyrrolo[1,2-c]pyrimidin-6-yl}ethanesulfonamide]: 97%.
The value for `Cc1cc(-c2c(F)cc(F)cc2F)c2c(-n3cc4n(c3=O)CC(NS(C)(=O)=O)C(F)(F)C4)noc2n1` (single isomer, unassigned) [Example 245, N-{(6R*)-7,7-difluoro-2-[6-methyl-4-(2,4,6-trifluorophenyl)[1,2]oxazolo[5,4-b]pyridin-3-yl]-3-oxo-2,3,5,6,7,8-hexahydroimidazo[1,5-a]pyridin-6-yl}methanesulfonamide] was 108%; that for `CCS(=O)(=O)N[C@@H]1CN2C(=O)N(c3noc4cccc(-c5ncc(F)cc5F)c34)CC[C@@H]2C1(F)F` [Example 321, N-{(4aR,6R)-2-[4-(3,5-difluoropyridin-2-yl)-1,2-benzoxazol-3-yl]-5,5-difluoro-1-oxooctahydropyrrolo[1,2-c]pyrimidin-6-yl}ethanesulfonamide] was 108%.
The value for `CS(=O)(=O)NC1Cn2c(cn(-c3noc4cccc(-c5c(F)cccc5F)c34)c2=O)CC1(F)F` (single isomer, unassigned) [Example 117, N-{(6R*)-2-[4-(2,6-difluorophenyl)-1,2-benzoxazol-3-yl]-7,7-difluoro-3-oxo-2,3,5,6,7,8-hexahydroimidazo[1,5-a]pyridin-6-yl}methanesulfonamide] was 97%; that for `CS(=O)(=O)N[C@H]1C[C@H]2CCN(c3noc4cc(F)cc(-c5c(F)cccc5F)c34)C(=O)N2C1` [Example 253, N-{(4aR,6S)-2-[4-(2,6-difluorophenyl)-6-fluoro-1,2-benzoxazol-3-yl]-1-oxooctahydropyrrolo[1,2-c]pyrimidin-6-yl}methanesulfonamide] was 101%; that for `CCS(=O)(=O)N[C@@H]1Cn2c(cn(-c3noc4nc(OC)cc(-c5c(F)cc(F)cc5F)c34)c2=O)C1(F)F` [Example 309, N-{(6R)-7,7-difluoro-2-[6-methoxy-4-(2,4,6-trifluorophenyl)[1,2]oxazolo[5,4-b]pyridin-3-yl]-3-oxo-2,5,6,7-tetrahydro-3H-pyrrolo[1,2-c]imidazol-6-yl}ethanesulfonamide] was 107%.
On to `Cc1cc(-c2c(F)cccc2F)c2c(N3CC[C@H]4N(C[C@@H](NS(C)(=O)=O)C4(F)F)C3=O)noc2c1` [Example 209, N-{(4aR,6R)-2-[4-(2,6-difluorophenyl)-6-methyl-1,2-benzoxazol-3-yl]-5,5-difluoro-1-oxooctahydropyrrolo[1,2-c]pyrimidin-6-yl}methanesulfonamide], for which the “OX2R agonist activity (3 uM, %)” value was determined as 96%.
The value for `CCS(=O)(=O)N[C@@H]1Cn2c(cn(-c3noc4cc(C)c(F)c(-c5c(F)cccc5F)c34)c2=O)C1(F)F` [Example 169, N-{(6R)-2-[4-(2,6-difluorophenyl)-5-fluoro-6-methyl-1,2-benzoxazol-3-yl]-7,7-difluoro-3-oxo-2,5,6,7-tetrahydro-3H-pyrrolo[1,2-c]imidazol-6-yl}ethanesulfonamide] was 103%; that for `Cc1cc2onc(-n3cc4n(c3=O)C[C@@H](NS(=O)(=O)C3CC3)C4(F)F)c2c(-c2c(F)cc(F)cc2F)n1` [Example 219, N-{(6R)-7,7-difluoro-2-[6-methyl-4-(2,4,6-trifluorophenyl)[1,2]oxazolo[4,5-c]pyridin-3-yl]-3-oxo-2,5,6,7-tetrahydro-3H-pyrrolo[1,2-c]imidazol-6-yl}cyclopropanesulfonamide] was 103%; that for `CS(=O)(=O)N[C@@H]1Cn2c(cn(-c3noc4cc(C(F)F)cc(-c5c(F)cc(F)cc5F)c34)c2=O)C1(F)F` [Example 141, N-{(6R)-2-[6-(difluoromethyl)-4-(2,4,6-trifluorophenyl)-1,2-benzoxazol-3-yl]-7,7-difluoro-3-oxo-2,5,6,7-tetrahydro-3H-pyrrolo[1,2-c]imidazol-6-yl}methanesulfonamide] was 94%.
Next, `CS(=O)(=O)N[C@@H]1CN2C(=O)N(c3noc4cc(C(F)(F)F)cc(-c5c(F)cc(F)cc5F)c34)CC[C@@H]2C1(F)F` [Example 225, N-{(4aR,6R)-5,5-difluoro-1-oxo-2-[6-(trifluoromethyl)-4-(2,4,6-trifluorophenyl)-1,2-benzoxazol-3-yl]octahydropyrrolo[1,2-c]pyrimidin-6-yl}methanesulfonamide]: 106%.
The value for `CS(=O)(=O)N[C@@H]1CN2C(=O)N(c3noc4cc(OC(F)F)cc(-c5c(F)cc(F)cc5F)c34)CC[C@@H]2C1(F)F` [Example 296, N-{(4aR,6R)-2-[6-(difluoromethoxy)-4-(2,4,6-trifluorophenyl)-1,2-benzoxazol-3-yl]-5,5-difluoro-1-oxooctahydropyrrolo[1,2-c]pyrimidin-6-yl}methanesulfonamide] was 102%.
For `O=c1n(-c2noc3ccc(F)c(-c4c(F)cc(F)cc4F)c23)cc2n1C[C@@H](NS(=O)(=O)CF)C2(F)F` [Example 293, N-{(6R)-7,7-difluoro-2-[5-fluoro-4-(2,4,6-trifluorophenyl)-1,2-benzoxazol-3-yl]-3-oxo-2,5,6,7-tetrahydro-3H-pyrrolo[1,2-c]imidazol-6-yl}-1-fluoromethanesulfonamide], the “OX2R agonist activity (3 uM, %)” value is reported as 113%.
Next, `O=C1N(c2noc3cc(OC(F)F)cc(-c4c(F)cccc4F)c23)CC[C@H]2N1C[C@@H](NS(=O)(=O)C1CC1)C2(F)F` [Example 256, N-{(4aR,6R)-2-[6-(difluoromethoxy)-4-(2,6-difluorophenyl)-1,2-benzoxazol-3-yl]-5,5-difluoro-1-oxooctahydropyrrolo[1,2-c]pyrimidin-6-yl}cyclopropanesulfonamide]: 103%; `O=c1n(-c2noc3cc(C(F)F)cc(-c4c(F)cccc4F)c23)cc2n1C[C@@H](NS(=O)(=O)CF)C2(F)F` [Example 306, N-{(6R)-2-[6-(difluoromethyl)-4-(2,6-difluorophenyl)-1,2-benzoxazol-3-yl]-7,7-difluoro-3-oxo-2,5,6,7-tetrahydro-3H-pyrrolo[1,2-c]imidazol-6-yl}-1-fluoromethanesulfonamide]: 101%.
